Molecules are shown by their SMILES.

For experiment [1], the target named is T1, human V1a receptor (Homo sapiens, UniProt P37288).
T1 construct: expressed in transfected cells; host or cells: CHO K1 (ATCC), also stably transfected with a modified aequorin
Nature of the experiment: Cellular in vitro assay for vasopressin receptor activity, V1a cell line (aequorin luminescence). The format is cell-based. The note with it: for IC50: CHO cell line transfected with human V1a receptor, agonist [Arg8]-vasopressin at EC50 concentration, read-out: IC50hV1a; for ratio IC50 hV2/hV1a: ratio of the IC50 on human V2 to the IC50 on human V1a. The method, then: (§1) B-1. Cellular In Vitro Assay for Determining Vasopressin Receptor Activity
(§2) The identification of agonists and antagonists of the V1a and V2 vasopressin receptors from humans, rats and dogs as well as the quantification of the activity of the compounds of the invention is carried out using recombinant cell lines. These cell lines originally derive from a hamster's ovary epithelial cell (Chinese Hamster Ovary, CHO K1, ATCC: American Type Culture Collection, Manassas, Va. 20108, USA). The test cell lines constitutively express the human, rat or dog V1a or V2 receptors. In case of the Gαq-coupled V1a receptors, cells are also stably transfected with a modified form of the calcium-sensitive photoproteins aequorin (human and rat V1a) or obelin (dog V1a), which, after reconstitution with the cofactor coelenterazine, emit light when there are increases in free calcium concentrations [Rizzuto R, Simpson A W, Brini M, Pozzan T, Nature 358, 325-327 (1992); Illarionov B A, Bondar V S, Illarionova V A, Vysotski E S, Gene 153 (2), 273-274 (1995)]. The resulting vasopressin receptor cells react to stimulation of the recombinantly expressed V1a receptors by intracellular release of calcium ions, which can be quantified by the resulting photoprotein luminescence. The Gs-coupled V2 receptors are stably transfected into cell lines expressing the gene for firefly luciferase under control of a CRE-responsible promoter. Activation of V2 receptors induces the activation of the CRE-responsive promoter via cAMP increase, thereby inducing the expression of firefly luciferase. The light emitted by photoproteins of V1a cell lines as well as the light emitted by firefly luciferase of V2 cell lines corresponds to the activation or inhibition of the respective vasopressin receptor. The bioluminescence of the cell lines is detected using a suitable luminometer [Milligan G, Marshall F, Rees S, Trends in Pharmacological Sciences 17, 235-237 (1996)].
Vasopressin V1a Receptor Cell Lines:
On the day before the assay, the cells are plated out in culture medium (DMEM/F12, 2% FCS, 2 mM glutamine, 10 mM HEPES, 5 μg/ml coelenterazine) in 384-well microtiter plates and kept in a cell incubator (96% humidity, 5% v/v CO2, 37° C.). On the day of the assay, test compounds in various concentrations are placed for 10 minutes in the wells of the microtiter plate before the agonist [Arg^8]-vasopressin at EC50 concentration is added. The resulting light signal is measured immediately in a luminometer.
(§3) Table 1A below lists individual IC50 values for the compounds of the invention (including racemic mixtures as well as separated enantiomers) that were obtained from cell lines transfected with the human V1a or V2 receptor: […]

For experiment [2], the target named is T2, human V2 receptor (Homo sapiens, UniProt P30518).
T2 construct: expressed in transfected cells; host or cells: CHO K1 (ATCC) line expressing firefly luciferase under a CRE-responsive promoter
T2 sequence (P30518 whole entry): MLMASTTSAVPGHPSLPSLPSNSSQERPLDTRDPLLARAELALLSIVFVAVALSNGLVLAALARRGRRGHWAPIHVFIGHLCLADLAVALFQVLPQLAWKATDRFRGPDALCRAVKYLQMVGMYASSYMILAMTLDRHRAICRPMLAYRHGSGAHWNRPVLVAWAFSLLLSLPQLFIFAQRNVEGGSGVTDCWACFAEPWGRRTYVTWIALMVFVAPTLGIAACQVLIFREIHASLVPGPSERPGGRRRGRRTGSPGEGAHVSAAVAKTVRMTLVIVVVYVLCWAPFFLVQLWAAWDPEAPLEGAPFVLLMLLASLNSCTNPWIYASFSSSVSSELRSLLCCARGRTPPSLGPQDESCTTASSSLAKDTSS
Nature of the experiment: Cellular in vitro assay for vasopressin receptor activity, V2 cell line (CRE-luciferase). The format is cell-based. Conditions: CHO cell line transfected with human V2 receptor; agonist [Arg8]-vasopressin at EC50 concentration, 3 hours; read-out: IC50hV2. The method, then:
as §1, §2
Vasopressin V2 Receptor Cell Lines:
On the day before the assay, the cells are plated out in culture medium (DMEM/F12, 2% FCS, 2 mM glutamine, 10 mM HEPES) in 384-well microtiter plates and kept in a cell incubator (96% humidity, 5% v/v CO2, 37° C.). On the day of the assay, test compounds in various concentrations and the agonist [Arg^8]-vasopressin at EC50 concentration are added together to the wells, and plates are incubated for 3 hours in a cell incubator. Upon addition of the cell lysis reagent Triton™ and the substrate luciferin, luminescence of firefly luciferase is measured in a luminometer.
as §3

T1 sequence (P37288 whole entry): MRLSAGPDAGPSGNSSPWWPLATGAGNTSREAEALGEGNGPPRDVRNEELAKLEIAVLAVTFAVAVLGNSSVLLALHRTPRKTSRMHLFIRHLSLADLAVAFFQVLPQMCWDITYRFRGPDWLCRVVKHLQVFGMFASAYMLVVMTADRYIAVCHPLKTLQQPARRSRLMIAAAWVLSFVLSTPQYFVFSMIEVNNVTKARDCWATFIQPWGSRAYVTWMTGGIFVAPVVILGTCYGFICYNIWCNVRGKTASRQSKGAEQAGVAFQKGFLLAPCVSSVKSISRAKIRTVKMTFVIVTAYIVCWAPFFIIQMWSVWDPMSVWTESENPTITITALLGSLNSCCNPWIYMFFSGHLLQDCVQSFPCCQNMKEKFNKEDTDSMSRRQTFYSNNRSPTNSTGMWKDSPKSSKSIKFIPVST

For the molecule `CCc1cccc(C)c1-n1nc(Cn2nc(-c3ccc(Cl)cc3)n(C[C@H](O)C(F)(F)F)c2=O)nc1C(C)(F)F` [Example 73, 5-(4-Chlorophenyl)-2-{[5-(1,1-difluoroethyl)-1-(2-ethyl-6-methylphenyl)-1H-1,2,4-triazol-3-yl]methyl}-4-[(2S)-3,3,3-trifluoro-2-hydroxypropyl]-2,4-dihydro-3H-1,2,4-triazol-3-one], the results for the IC50 in experiment [1] and in experiment [2] were 0.041 µM and 0.0119 µM, respectively. Besides, the “ratio IC50 hV2/hV1a” value in experiment [1] stood at 0.3.
On to `CC(F)c1nc(Cn2nc(-c3ccc(Cl)cc3)n(C[C@H](O)C(F)(F)F)c2=O)nn1-c1ccccc1OC(F)(F)F` (mixture of isomers) [Example 25, 5-(4-Chlorophenyl)-2-({5-[1-fluoroethyl]-1-[2-(trifluoromethoxy)phenyl]-1H-1,2,4-triazol-3-yl}methyl)-4-[(2S)-3,3,3-trifluoro-2-hydroxypropyl]-2,4-dihydro-3H-1,2,4-triazol-3-one], for which, in experiment [1], the IC50 amounted to 0.0027 µM and the “ratio IC50 hV2/hV1a” value turned out to be 6.3. In addition, the IC50 in experiment [2] came to 0.017 µM.
Turning to `CC(C)c1ccccc1-n1nc(Cn2nc(-c3ccc(Cl)cc3)n(C[C@H](O)C(F)(F)F)c2=O)nc1C(C)F` (mixture of isomers) [Example 47, 5-(4-Chlorophenyl)-2-({5-[1-fluoroethyl]-1-[2-(propan-2-yl)phenyl]-1H-1,2,4-triazol-3-yl}methyl)-4-[(2S)-3,3,3-trifluoro-2-hydroxypropyl]-2,4-dihydro-3H-1,2,4-triazol-3-one], in experiment [1], the IC50 stood at 0.03 µM and the “ratio IC50 hV2/hV1a” value stood at 1.2. The IC50 in experiment [2] is 0.035 µM.
For `CC(F)c1nc(Cn2nc(-c3ccc(Cl)cc3)n(C[C@H](O)C(F)(F)F)c2=O)nn1-c1ccccc1OC(F)(F)F` (single isomer, unassigned) [Example 27] the same measures were 0.00175 µM, 5.6 and 0.0098 µM.
For the molecule `O=c1n(Cc2nc(C(F)(F)F)n(-c3cccc(F)c3)n2)nc(-c2ccc(Cl)cc2)n1C[C@H](O)C(F)(F)F` [Example 78, 5-(4-Chlorophenyl)-2-{[1-(3-fluorophenyl)-5-(trifluoromethyl)-1H-1,2,4-triazol-3-yl]methyl}-4-[(2S)-3,3,3-trifluoro-2-hydroxypropyl]-2,4-dihydro-3H-1,2,4-triazol-3-one], the IC50 in experiment [1] is 0.0496 µM; in experiment [2], 0.00475 µM. For the same molecule, the “ratio IC50 hV2/hV1a” value in experiment [1] is listed as 0.1.
For the molecule `O=c1n(Cc2nc(C(F)(F)C3CCOCC3)n(-c3ccccc3Cl)n2)nc(-c2ccc(Cl)cc2)n1C[C@H](O)C(F)(F)F` [Example 77, 5-(4-Chlorophenyl)-2-({1-(2-chlorophenyl)-5-[difluoro(tetrahydro-2H-pyran-4-yl)methyl]-1H-1,2,4-triazol-3-yl}methyl)-4-[(2S)-3,3,3-trifluoro-2-hydroxypropyl]-2,4-dihydro-3H-1,2,4-triazol-3-one], in experiment [1], the IC50 is 0.0014 µM and the “ratio IC50 hV2/hV1a” value is recorded as 5.0. The IC50 in experiment [2] turned out to be 0.00703 µM.
As to `CC(F)c1nc(Cn2nc(-c3ccc(Cl)cc3)n(C[C@H](O)C(F)(F)F)c2=O)nn1-c1ccccc1C(F)(F)F` (mixture of isomers) [Example 22, 5-(4-Chlorophenyl)-2-({5-[1-fluoroethyl]-1-[2-(trifluoromethyl)phenyl]-1H-1,2,4-triazol-3-yl}methyl)-4-[(2S)-3,3,3-trifluoro-2-hydroxypropyl]-2,4-dihydro-3H-1,2,4-triazol-3-one], in experiment [1], the IC50 came out at 0.0039 µM and the “ratio IC50 hV2/hV1a” value came to 3.5. Moreover, the IC50 in experiment [2] is 0.0135 µM.
`CC(F)c1nc(Cn2nc(-c3ccc(Cl)cc3)n(C[C@H](O)C(F)(F)F)c2=O)nn1-c1cccc(F)c1` (single isomer, unassigned) [Example 15]: in experiment [1], the IC50 came to 0.0125 µM and the “ratio IC50 hV2/hV1a” value came out at 0.6. In addition, the IC50 in experiment [2] worked out at 0.00785 µM.
